pIC50: −log10 of the molar value. Values after ≈ are worked out from the molar mass of the structure shown. Where two headings read alike, the source gives them in different places.
Tests used:
[1] = Aqueous Solubility in pION's buffer; assay type: physicochemical
PAMPA Permeability = assay type: in vitro ADME
[2] = Hepatic Microsome Stability Mouse; assay type: in vitro ADME
[3] = Aqueous Solubility in 1xPBS, pH 7.4; assay type: physicochemical; conditions: pH 7.4, aqueous buffer
[4] = Hepatic Microsome Stability Human; assay type: in vitro ADME
[5] = molecular target: EmCV Cap-dependent translation; assay: In vitro translation assay, FF-EmCV-Ren construct, cap-dependent (FF luciferase); assay type: biochemical, rabbit reticulocyte lysates
Outline: (§1)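 In a cell-free system, lysate-driven translation of FF-IRES-Ren RNA (0.1 μg per well, 2 h, 30° C) follows 1 h compound pre-treatment at room temperature. Dual-Glo readings separate cap-dependent (FF) from IRES-mediated (Ren) output.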

[6] = molecular target: HCV cap-dependent translation; assay: In vitro translation assay, FF-HCV-Ren construct, cap-dependent (FF luciferase); assay type: biochemical, rabbit reticulocyte lysates
Outline: as §1

A375 = assay: 48 h Cytotoxicity A375; assay type: cell-based; conditions: Homo sapiens, A-375
[7] = molecular target: HCV cap-independent translation; assay: In vitro translation assay, FF-HCV-Ren construct, cap-independent (Ren luciferase); assay type: biochemical, rabbit reticulocyte lysates
Outline: as §1

[8] = molecular target: EmCV Cap-independent translation; assay: In vitro translation assay, FF-EmCV-Ren construct, cap-independent (Ren luciferase); assay type: biochemical, rabbit reticulocyte lysates
Outline: as §1

A375 tumors = assay: A375 xenograft in nude mice; assay type: in vivo
Method: All animal studies were conducted in the SBMRI Animal Facility in accordance with the Institutional Animal Care and Use Committee guidelines. Six-week-old female nu/nu mice were purchased Harlan Laboratories (Indianapolis, Ind.) and allowed to acclimatize for 1 week. A375 cells (1×10^6, suspended in 200 μL sterile PBS) were injected into subcutaneous flank tissue. When the xenograft size reached ˜250 mm^3, mice were sorted into different groups. For PLX4720 and Compound 38 combination experiments, mice were either fed PLX4720-containing chow alone (AIN76A Roden Diet with 417 mg PLX4720/kg from Open Source Diets) for the control group or PLX4 720-containing chow plus an IP injection of 1 mg/kg Compound 38 twice a week. For MEKi plus Compound 38 experiments, PD0325901 at 20 mg/kg (formulated in 0.5% hydroxypropyl methylcellulose plus 0.2% Tween-80) was administered by oral gavage twice a week (Monday and Thursday) for the control group, or PD035901 plus IP injection of 1 mg/kg Compound 38 was administered twice a week (Tuesday and Friday). Mice were maintained in a pathogen-free environment with free access to food. Body weight and tumor volume were measured twice a week. Tumor size was measured with linear calipers and calculated using the formula: ([length in millimeters×(width in millimeters)2]/2). Mice were sacrificed after 4 weeks and tumors were fixed in Z-Fix (Anatech, Battle Creek, Mich.) and embedded in paraffin for immunohistochemistry.
A375 human melanomacells were injected subcutaneously (1×10^6) into the flank of nude mice and allowed to form established tumors. Once tumors reached approximately 250 mm3, mice were randomly grouped and subjected to the indicated treatments [chow containing PLX4720 (417 mg/kg) and/or Compound 38 (1 mg/kg, 2 times per week intraperitoneally)]. Tumor size was measured at the indicated time points. The experiment was repeated twice. […] When tumors were allowed to reach 500 mm^3 before initiating treatment, 5 of 7 […] mice subjected to BRAFi treatment alone relapsed as drug-resistant tumors (4/5 within 4-6 weeks), whereas only 3 of 6 (50%) subjected to combination treatment developed resistance, albeit more slowly (2/3 after 8 weeks; FIG. 22). […] Proteins prepared at the indicated times from A375 tumors that were subjected in vivo to treatment with Compound 38 were incubated with m^7GTP-beads to capture the eIF4F complex. Shown is time-dependent inhibition of eIF4G1 binding to eIF4E in vivo, concomitant with increased binding of inhibitory 4E-BP1 to eIF4E.

eIF4F complex = molecular target: T1, eIF4F complex (Mus musculus, UniProt Q6NZJ6); assay: m7GTP pull-down assay, WT or 4E-BP DKO MEFs; assay type: cell-based; conditions: 6 hours, Torin1 250 nmol/L
T1 construct: endogenous in cells; host or cells: WT and 4E-BP1/2 double-knock-out MEFs
Method: As previously described (Dowling R J, et al. mTORC1-mediated cell proliferation, but not cell growth, controlled by the 4E-BPs. Science. 2010; 328:1172-6), cells growing in 100 mm plates were washed (cold PBS), collected, and lysed in 50 mM MOPS/KOH (7.4), 100 mM NaCl, 50 mM NaF, 2 mM EDTA, 2 mM EGTA, 1% NP40, 1% Na-DOC, 7 mM β-mercaptoethanol, protease inhibitors and phosphatase inhibitor cocktail (Roche). Lysates were incubated with m7-GDP-agarose beads (Jena Bioscience) for 20 minutes, washed 4 times with the washing buffer containing 50 mM MOPS/KOH (7.4), 100 mM NaCl, 50 mM NaF, 0.5 mM EDTA, 0.5 mM EGTA, 7 mM (3-mercaptoethanol, 0.5 mM PMSF, 1 mM Na3VO4 and 0.1 mM GTP, and bound proteins were eluted by boiling the beads in loading buffer. m7-GDP-agarose pulled down material was analyzed by Western blot analysis.
Indicated cultures (WT or DKO 4E-BP) were treated with Torin1 (250 nmol/L) or indicated Compound 38 concentrations for 6 hours. Western blots show respective protein levels in total cell lysates or following pull-down using m^7GTP agarose beads. […] P3-Actin served as a loading control and to exclude contamination in m^7GTP pull-down.

[9] = aqueous buffer, pH 5.0, read-out: Aqueous Solubility in pION's buffer pH 5.0
[10] = pH 6.2, aqueous buffer, read-out: Aqueous Solubility in pION's buffer pH 6.2
[11] = pH 7.4, aqueous buffer, read-out: Aqueous Solubility in pION's buffer pH 7.4
[12] = Donor pH 5.0, Acceptor pH 7.4, read-out: PAMPA Permeability, Pe, Donor pH 5.0
[13] = Donor pH 6.2, Acceptor pH 7.4, read-out: PAMPA Permeability, Pe, Donor pH 6.2
[14] = pH 7.4, Donor pH 7.4, Acceptor pH 7.4, read-out: PAMPA Permeability, Pe, Donor pH 7.4

T1 sequence (Q6NZJ6 whole entry, one chain of several): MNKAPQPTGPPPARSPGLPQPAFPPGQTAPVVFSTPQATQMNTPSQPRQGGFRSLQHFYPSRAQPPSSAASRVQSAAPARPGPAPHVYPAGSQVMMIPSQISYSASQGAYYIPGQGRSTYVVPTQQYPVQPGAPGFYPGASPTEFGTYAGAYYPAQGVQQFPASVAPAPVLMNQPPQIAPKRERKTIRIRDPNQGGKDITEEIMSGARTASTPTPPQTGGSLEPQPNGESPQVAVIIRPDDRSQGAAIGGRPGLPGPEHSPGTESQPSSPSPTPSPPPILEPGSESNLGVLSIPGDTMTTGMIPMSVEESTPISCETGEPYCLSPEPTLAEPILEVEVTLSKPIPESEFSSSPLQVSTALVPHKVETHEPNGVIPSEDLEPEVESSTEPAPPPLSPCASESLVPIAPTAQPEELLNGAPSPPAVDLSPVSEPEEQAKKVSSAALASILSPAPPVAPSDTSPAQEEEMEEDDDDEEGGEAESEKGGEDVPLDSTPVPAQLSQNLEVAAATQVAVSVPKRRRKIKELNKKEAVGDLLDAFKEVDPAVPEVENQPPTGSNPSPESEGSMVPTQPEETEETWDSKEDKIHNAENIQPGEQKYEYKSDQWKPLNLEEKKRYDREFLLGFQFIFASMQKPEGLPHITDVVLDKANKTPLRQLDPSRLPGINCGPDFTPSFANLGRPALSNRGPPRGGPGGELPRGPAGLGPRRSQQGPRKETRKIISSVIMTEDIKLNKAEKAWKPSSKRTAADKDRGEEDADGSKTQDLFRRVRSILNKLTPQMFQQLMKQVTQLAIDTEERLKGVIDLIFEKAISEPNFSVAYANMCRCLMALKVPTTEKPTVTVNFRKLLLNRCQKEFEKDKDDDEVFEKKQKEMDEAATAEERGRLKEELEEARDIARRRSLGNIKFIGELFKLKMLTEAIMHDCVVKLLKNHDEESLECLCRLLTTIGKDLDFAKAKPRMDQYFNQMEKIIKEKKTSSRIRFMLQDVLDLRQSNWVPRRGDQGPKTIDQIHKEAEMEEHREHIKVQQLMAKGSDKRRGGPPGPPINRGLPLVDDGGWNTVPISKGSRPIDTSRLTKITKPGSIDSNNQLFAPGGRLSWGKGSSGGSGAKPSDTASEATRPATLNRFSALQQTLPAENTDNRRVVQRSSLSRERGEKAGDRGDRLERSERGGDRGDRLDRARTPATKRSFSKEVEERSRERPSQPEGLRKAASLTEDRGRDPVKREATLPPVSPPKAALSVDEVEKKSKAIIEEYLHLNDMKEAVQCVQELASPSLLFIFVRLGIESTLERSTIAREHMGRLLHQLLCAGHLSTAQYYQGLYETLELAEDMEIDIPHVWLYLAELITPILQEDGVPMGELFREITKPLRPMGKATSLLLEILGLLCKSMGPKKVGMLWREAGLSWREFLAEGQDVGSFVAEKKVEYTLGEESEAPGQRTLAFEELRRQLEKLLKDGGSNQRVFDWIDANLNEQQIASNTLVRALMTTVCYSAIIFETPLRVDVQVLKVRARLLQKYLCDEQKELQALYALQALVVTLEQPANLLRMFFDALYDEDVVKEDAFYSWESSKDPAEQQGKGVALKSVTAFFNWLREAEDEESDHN

SMILES | solubility [1, 9] | solubility [1, 10] | solubility [1, 11] | Papp (PAMPA Permeability; [12]) | Papp (PAMPA Permeability; [13]) | Papp (PAMPA Permeability; [14]) | Hepatic Microsome Stability (% remaining at 1 Hr) Mouse [2] | Hepatic Microsome Stability (% remaining at 1 Hr) Mouse (no NADPH) [2] | solubility [3] | Hepatic Microsome Stability (% Remaining at 1 hr) Human [4] | Hepatic Microsome Stability (% Remaining at 1 hr) Human (no NADPH) [4] | pIC50 [5] | pIC50 [6] | pIC50 (A375) | pIC50 [7] | pIC50 [8] | Growth of established tumors (~250 mm^3), BRAFi alone (A375 tumors; chow containing PLX4720 (417 mg/kg)) | Tumors resumed growth, BRAFi-treated group (A375 tumors; treatment started at ~250 mm^3, PLX4720 chow) | eIF4G1:eIF4E association (m7GTP pull-down) (eIF4F complex)
O=C(/C=C/c1nc2ccccc2[nH]1)c1c(O)nc2ccc(Cl)cc2c1-c1ccccc1 [BI-69A11, reference compound] | 0.16 µg/mL (≈ 0.376 µM) | 0.24 µg/mL (≈ 0.564 µM) | 0.1 µg/mL (≈ 0.235 µM) | 13 ×10⁻⁶ cm/s | 16 ×10⁻⁶ cm/s | 42 ×10⁻⁶ cm/s | 48.54 % remaining | 45.01 % remaining | 0.11 µg/mL (≈ 0.258 µM) | 68.24 % Remaining | 61.74 % Remaining | – | – | – | – | – | – | – | –
O=C(/C=C/c1ccccc1)c1c(C2CCCCC2)c2cc(Cl)ccc2[nH]c1=O [Compound 12, 6-chloro-3-cinnamoyl-4-cyclohexylquinolin-2(1H)-one] | 1.6 µg/mL (≈ 4.08 µM) | 1.4 µg/mL (≈ 3.57 µM) | 1.2 µg/mL (≈ 3.06 µM) | 1010 ×10⁻⁶ cm/s | 301 ×10⁻⁶ cm/s | 379 ×10⁻⁶ cm/s | 32.98 % remaining | 63.69 % remaining | 1.5 µg/mL (≈ 3.83 µM) | 59.85 % Remaining | 57.73 % Remaining | 5.00 to 5.70 | 4.70 to 5.00 | > 5.70 | < 4.70 | 4.70 to 5.00 | – | – | –
O=C(/C=C/c1nc2cc(Cl)ccc2[nH]1)c1c(-c2ccccc2)c2cc(Cl)ccc2[nH]c1=O [Compound 62, 6-Chloro-3-[3-(5-chloro-1H-benzoimidazol-2-yl)-acryloyl]-4-phenyl-1H-quinolin-2-one] | 0.34 µg/mL (≈ 0.739 µM) | 0.42 µg/mL (≈ 0.912 µM) | 0.12 µg/mL (≈ 0.261 µM) | 29 ×10⁻⁶ cm/s | 6.2 ×10⁻⁶ cm/s | 2.5 ×10⁻⁶ cm/s | 85.64 % remaining | 82.96 % remaining | 0.11 µg/mL (≈ 0.239 µM) | 89.89 % Remaining | 54.66 % Remaining | 5.00 to 5.70 | 5.00 to 5.70 | > 5.70 | 5.00 to 5.70 | 5.00 to 5.70 | – | – | –
O=C(/C(Br)=C\c1cncc(F)c1)c1c(-c2ccccc2)c2cc(Cl)ccc2[nH]c1=O [Compound 111, 3-[(2E)-2-bromo-3-(5-fluoro(3-pyridyl))prop-2-enoyl]-6-chloro-4-phenylhydroquinolin-2-one] | – | – | – | – | – | – | – | – | – | – | – | 5.00 to 5.70 | 5.00 to 5.70 | 5.00 to 5.70 | 5.00 to 5.70 | 5.00 to 5.70 | – | – | –
Cc1ccnc(C#CC(=O)c2c(-c3ccccc3)c3cc(Cl)ccc3[nH]c2=O)c1 [Compound 112, 6-Chloro-3-[3-(4-methyl-pyridin-2-yl)-propynoyl]-4-phenyl-1H-quinolin-2-one] | – | – | – | – | – | – | – | – | – | – | – | < 4.70 | < 4.70 | < 4.70 | < 4.70 | < 4.70 | – | – | –
O=C(/C=C/c1ccc(Cl)s1)c1c(-c2ccccc2)c2cc(Cl)ccc2[nH]c1=O [Compound 113, 6-Chloro-3-[3-(5-chloro-thiophen-2-yl)-acryloyl]-4-phenyl-1H-quinolin-2-one] | – | – | – | – | – | – | – | – | – | – | – | 5.00 to 5.70 | 5.00 to 5.70 | 5.00 to 5.70 | 5.00 to 5.70 | 5.00 to 5.70 | – | – | –
Cc1ccc2[nH]c(/C=C/C(=O)c3c(-c4ccccc4)c4cc(Cl)cnc4[nH]c3=O)nc2c1 [Compound 114, (E)-6-chloro-3-(3-(5-methyl-1H-benzo[d]imidazol-2-yl)acryloyl)-4-phenyl-1,8-naphthyridin-2(1H)-one] | – | – | – | – | – | – | – | – | – | – | – | 5.00 to 5.70 | < 4.70 | 5.00 to 5.70 | 4.70 to 5.00 | 4.70 to 5.00 | – | – | –
O=C(/C=C/c1cncc(Cl)c1)c1c(-c2ccccc2)c2cc(Cl)ccc2[nH]c1=O [Compound 115, (E)-6-chloro-3-(3-(5-chloropyridin-3-yl)acryloyl)-4-phenylquinolin-2(1H)-one] | – | – | – | – | – | – | – | – | – | – | – | 5.00 to 5.70 | 5.00 to 5.70 | > 5.70 | 5.00 to 5.70 | 5.00 to 5.70 | – | – | –
CCCS(=O)(=O)Nc1ccc(F)c(C(=O)c2c[nH]c3ncc(Cl)cc23)c1F [PLX4720, reference compound] | – | – | – | – | – | – | – | – | – | – | – | – | – | – | – | – | largely inhibited | 3/5 | –
CCC(=O)N1CCN(c2ccc(-n3c(=O)ccc4cnc5ccc(-c6cnc7ccccc7c6)cc5c43)cc2C(F)(F)F)CC1 [torin1, reference compound] | – | – | – | – | – | – | – | – | – | – | – | – | – | – | – | – | – | – | induced dissociation of eIF4G1 from eIF4E in WT but not in 4E-BPDKOMEFs

— patent publication US10577349B2 (Sanford Burnham Prebys Medical Discovery Institute, priority 2015, dated 2020)
